Measurements from patent publication US20210333284A1, “METHODS AND MATERIALS FOR LARGE-SCALE ASSESSMENT OF LIGAND BINDING SELECTIVITY OF G-QUADRUPLEX RECOGNITION USING CUSTOM G4 MICROARRAYS” (Purdue Research Foundation, priority 2020, published 2021).
One block for each molecule: values may come before it.

Key:
human telomeric G4s = assay: G4 microarray competition with Cy5-PDS, telomeric G4s; assay type: binding; settings: 1 μM BMVC and 1 μM Cy5-PDS
Method: Custom G4 microarrays have been designed that contain a total of 19,249 G4 DNA sequences [31, the entirety of disclosure of which, including the supplemental information, is incorporated herein by reference]. The G4 microarrays were created by covalently attaching thousands of unique G4-forming DNA 60-mers to a glass surface. Pyridostatin (PDS) is a known G4-interactive compound. […] To test the binding selectivity of BMVC, competition experiments using custom G4 microarrays were performed. The addition of potassium-containing solution to G4-forming oligonucleotides induced G4 formation. […] After washing to remove the unbound Cy5-PDS and BMVC, the fluorescence intensities of Cy5-PDS bound to DNA oligonucleotides were detected using a fluorescence scanner. The binding selectivity of BMVC to different G4 structures was assessed by measuring the relative fluorescence intensity reduction of Cy5-PDS as BMVC concentration increased.
To determine the G4-binding selectivity of BMVC, the BMVC binding to known G4 structures was examined, including 7 well-studied MYC promoter G4 sequences, 15 other oncogene promoter G4 sequences, and 3 human telomeric G4 sequences (TABLE 4). BMVC competes with the binding of Cy5-PDS to most G4 sequences in a dose-dependent manner as indicated by reduced fluorescence intensities (FIG. 8a). […]

[1] = test system: PDGF-A_Pu48, MYB, Bcl-2_P1G4 and Bcl2_55G G4 sequences; assay: G4 microarray competition with Cy5-PDS, other oncogene promoter G4s; assay type: binding, human
Method: Custom G4 microarrays have been designed that contain a total of 19,249 G4 DNA sequences [31, the entirety of disclosure of which, including the supplemental information, is incorporated herein by reference]. The G4 microarrays were created by covalently attaching thousands of unique G4-forming DNA 60-mers to a glass surface. Pyridostatin (PDS) is a known G4-interactive compound. […] To test the binding selectivity of BMVC, competition experiments using custom G4 microarrays were performed. The addition of potassium-containing solution to G4-forming oligonucleotides induced G4 formation. Subsequently, the microarrays were incubated with 1 μM Cy5-PDS in the absence or presence of 1 μM, 3 μM, or 10 μM of the unlabeled BMVC molecule. After washing to remove the unbound Cy5-PDS and BMVC, the fluorescence intensities of Cy5-PDS bound to DNA oligonucleotides were detected using a fluorescence scanner. The binding selectivity of BMVC to different G4 structures was assessed by measuring the relative fluorescence intensity reduction of Cy5-PDS as BMVC concentration increased.
To determine the G4-binding selectivity of BMVC, the BMVC binding to known G4 structures was examined, including 7 well-studied MYC promoter G4 sequences, 15 other oncogene promoter G4 sequences, and 3 human telomeric G4 sequences (TABLE 4). BMVC competes with the binding of Cy5-PDS to most G4 sequences in a dose-dependent manner as indicated by reduced fluorescence intensities (FIG. 8a).
DNA Microarray Binding Experiments DNA microarray experiments were performed and analyzed as described previously. Microarrays were preincubated with a pH 7.4 phosphate buffer solution with 100 mM potassium for 1 h at room temperature to induce G4 formation. […]
Data Processing and Analysis Molecule-bound microarrays were scanned with an Agilent G5761A SureScan Dx Microarray Scanner System to detect Cy5 signal at two laser settings (30 and 100 PMT). Spot intensities from microarray images were extracted using Agilent Feature Extraction Software and are reported as raw fluorescence intensities. […]

[2] = test system: genomic G4 sequences (folded G4 structures); assay: G4 microarray binding in potassium vs lithium; set-up: species or system human; settings: GST-tagged proteins
Method: The binding specificities of several molecules were evaluated. Microarrays were preincubated with 100 mM potassium chloride to induce G4 formation. Binding of each molecule is measured by detection of fluorescence intensity at each of the microarray features. BG4 and pyridostatin were conjugated with Cy5. Cellular proteins were expressed as chimeric proteins containing GST, and binding for these proteins was detected using an anti-GST antibody conjugated with Cy5 (Materials and Methods). G4 Structures Fold on DNA Microarrays. To evaluate the utility of DNA microarrays to examine G4-binding specificity, a Cy5-labeled pyridostatin (Cy5-PDS), a small molecule known to bind broadly to G4 structures, was synthesized.^13 A Cy5 conjugated version of BG4 (Cy5-BG4), an antibody developed to bind G4s, was also obtained.^31 FIG. 1A, B presents replicate binding intensities to 15,491 DNA sequences on the Design 3 microarray using either Cy5-PDS or Cy5-BG4. For Cy5-PDS, robust binding is observed at 1 μM, with fluorescence intensities ranging over 100-fold between strongest and weakest bound DNA features. The fluorescence-binding intensities of Cy5-PDS are proportional to the concentration of pyridostatin used). […] Antibody binding to non-G4 features increases with higher concentrations, and in some cases non-G4 sequences are more strongly bound by Cy5-BG4 than G4 sequences, including multiple cytosine-rich negative control sequences. Inhibition of G4 Formation Inhibits Cy5-PDS and Cy5-BG4 Binding. Cy5-PDS and Cy5-BG4 binding under conditions that inhibit G4 formation was examined to evaluate if G4 structures form on the microarray and are required for binding. […] It is noted that many sequences, in addition to the oncogene G4 sequences, are capable of forming G4s. […] For Cy5-BG4, the decrease in binding was up to 270-fold for genomic G4 sequences, while binding to negative controls decreased up to 23-fold (FIG. 1D,). In a second experiment, Cy5-PDS binding following a primer extension reaction that produces dsDNA^24 was examined (see Materials and Methods), anticipating that dsDNA would predominate over G4 formation^13. […] 2,27,28
Microarrays were preincubated with a 100 mM potassium chloride solution for 1 h at RT to induce G4 formation. Protein binding microarray experiments were then performed as previously described.^23 Microarrays were blocked with 4% nonfat dry milk in a potassium phosphate buffer before incubation with proteins or small molecules. Expressed proteins were blocked with 4% nonfat dry milk, ssDNA, and BSA. For the validation experiments, microarrays were also treated with 100 mM lithium chloride to inhibit G4 formation. For experiments examining dsDNA, single-stranded DNA probes were made double-stranded using a primer complementary to a 24-mer constant sequence following the method described previously.^23,24 Double stranding efficiency was monitored using 4% Cy3-dCTP.
Protein or molecule-bound microarrays were scanned with the G5761A SureScan Dx Microarray Scanner System (Agilent) to detect a Cy5 signal at two laser settings (30 and 100 PMT) to ensure signal intensities were below saturation. Spot intensities from microarray images were extracted using the Agilent Feature Extraction Software and are reported as raw fluorescence units. All binding assays were performed at least twice, with high agreement between replicates (R>0.8). Microarrays with the fewest number of saturated spots were used for further analysis. Median intensity was then computed for probes containing identical sequence on each microarray. […]

inhibition of Cy5-PDS binding to human telomeric G4s (human telomeric G4s): significantly inhibited | binding to Bcl2_55G ([1]; competition with Cy5-PDS): good binding | binding to Bcl-2_P1G4 ([1]; competition with Cy5-PDS, compared with Bcl2_55G): markedly weaker | binding to PDGF-A_Pu48 and MYB sequences relative to Cy5-PDS ([1]; equimolar competition): much weaker
Molecule: C[n+]1ccc(/C=C/c2ccc3[nH]c4ccc(/C=C/c5cc[n+](C)cc5)cc4c3c2)cc1.[I-].[I-] [BMVC, 3,6-Bis(1-methyl-4-vinylpyridinium) carbazole diiodide]

B1: FANCJ: GST-tagged human BRCA1-binding helicase-like protein / Fanconi anemia group J protein (protein, listed as Homo sapiens)
chain: MSSMWSEYTIGGVKIYFPYKAYPSQLAMMNSILRGLNSKQHCLLESPTGSGKSLALLCSALAWQQSLSGKPADEGVSEKAEVQLSCCCACHSKDFTNNDMNQGTSRHFNYPSTPPSERNGTSSTCQDSPEKTTLAAKLSAKKQASIYRDENDDFQVEKKRIRPLETTQQIRKRHCFGTEVHNLDAKVDSGKTVKLNSPLEKINSFSPQKPPGHCSRCCCSTKQGNSQESSNTIKKDHTGKSKIPKIYFGTRTHKQIAQITRELRRTAYSGVPMTILSSRDHTCVHPEVVGNFNRNEKCMELLDGKNGKSCYFYHGVHKISDQHTLQTFQGMCKAWDIEELVSLGKKLKACPYYTARELIQDADIIFCPYNYLLDAQIRESMDLNLKEQVVILDEAHNIEDCARESASYSVTEVQLRFARDELDSMVNNNIRKKDHEPLRAVCCSLINWLEANAEYLVERDYESACKIWSGNEMLLTLHKMGITTATFPILQGHFSAVLQKEEKISPIYGKEEAREVPVISASTQIMLKGLFMVLDYLFRQNSRFADDYKIAIQQTYSWTNQIDISDKNGLLVLPKNKKRSRQKTAVHVLNFWCLNPAVAFSDINGKVQTIVLTSGTLSPMKSFSSELGVTFTIQLEANHIIKNSQVWVGTIGSGPKGRNLCATFQNTETFEFQDEVGALLLSVCQTVSQGILCFLPSYKLLEKLKERWLSTGLWHNLELVKTVIVEPQGGEKTNFDELLQVYYDAIKYKGEKDGALLVAVCRGKVSEGLDFSDDNARAVITIGIPFPNVKDLQVELKRQYNDHHSKLRGLLPGRQWYEIQAYRALNQALGRCIRHRNDWGALILVDDRFRNNPSRYISGLSKWVRQQIQHHSTFESALESLAEFSKKHQKVLNVSIKDRTNIQDNESTLEVTSLKYSTPPYLLEAASHLSPENFVEDEAKICVQELQCPKIITKNSPLPSSIISRKEKNDPVFLEEAGKAEKIVISRSTSPTFNKQTKRVSWSSFNSLGQYFTGKIPKATPELGSSENSASSPPRFKTEKMESKTVLPFTDKCESSNLTVNTSFGSCPQSETIISSLKIDATLTRKNHSEHPLCSEEALDPDIELSLVSEEDKQSTSNRDFETEAEDESIYFTPELYDPEDTDEEKNDLAETDRGNRLANNSDCILAKDLFEIRTIKEVDSAREVKAEDCIDTKLNGILHIEESKIDDIDGNVKTTWINELELGKTHEIEIKNFKPSPSKNKGMFPGFK
modifications: GST tag
effect of lithium chloride (inhibiting G4 formation) on protein binding [2]: weakened binding

B2: DHX36: GST-tagged human DHX36/G4R1/MLEL1 helicase (protein, listed as Homo sapiens)
chain: MSYDYHQNWGRDGGPRSSGGGYGGGPAGGHGGNRGSGGGGGGGGGGRGGRGRHPGHLKGREIGMWYAKKQGQKNKEAERQERAVVHMDERREEQIVQLLNSVQAKNDKESEAQISWFAPEDHGYGTEVSTKNTPCSENKLDIQEKKLINQEKKMFRIRNRSYIDRDSEYLLQENEPDGTLDQKLLEDLQKKKNDLRYIEMQHFREKLPSYGMQKELVNLIDNHQVTVISGETGCGKTTQVTQFILDNYIERGKGSACRIVCTQPRRISAISVAERVAAERAESCGSGNSTGYQIRLQSRLPRKQGSILYCTTGIILQWLQSDPYLSSVSHIVLDEIHERNLQSDVLMTVVKDLLNFRSDLKVILMSATLNAEKFSEYFGNCPMIHIPGFTFPVVEYLLEDVIEKIRYVPEQKEHRSQFKRGFMQGHVNRQEKEEKEAIYKERWPDYVRELRRRYSASTVDVIEMMEDDKVDLNLIVALIRYIVLEEEDGAILVFLPGWDNISTLHDLLMSQVMFKSDKFLIIPLHSLMPTVNQTQVFKRTPPGVRKIVIATNIAETSITIDDVVYVIDGGKIKETHFDTQNNISTMSAEWVSKANAKQRKGRAGRVQPGHCYHLYNGLRASLLDDYQLPEILRTPLEELCLQIKILRLGGIAYFLSRLMDPPSNEAVLLSIRHLMELNALDKQEELTPLGVHLARLPVEPHIGKMILFGALFCCLDPVLTIAASLSFKDPFVIPLGKEKIADARRKELAKDTRSDHLTVVNAFEGWEEARRRGFRYEKDYCWEYFLSSNTLQMLHNMKGQFAEHLLGAGFVSSRNPKDPESNINSDNEKIIKAVICAGLYPKVAKIRLNLGKKRKMVKVYTKTDGLVAVHPKSVNVEQTDFHYNWLIYHLKMRTSSIYLYDCTEVSPYCLLFFGGDISIQKDNDQETIAVDEWIVFQSPARIAHLVKELRKELDILLQEKIESPHPVDWNDTKSRDCAVLSAIIDLIKTQEKATPRNFPPRFQDGYYS
modifications: GST tag
notes: GST-tagged human DHX36/G4R1/MLEL1 helicase
effect of lithium chloride (inhibiting G4 formation) on protein binding [2]: weakened binding
